Source: ChEMBL document CHEMBL1177883, “5D-QSAR for spirocyclic sigma1 receptor ligands by Quasar receptor surface modeling” (Eur J Med Chem, 2010)

Target: Sigma non-opioid intracellular receptor 1 (Cavia porcellus, UniProt Q60492)
Assay: Displacement of [3H](+)-pentazocine from sigma 1 receptor in guinea pig brain membrane
Format: cell membranes

Sigma non-opioid intracellular receptor 1, sequence (Q60492 whole entry): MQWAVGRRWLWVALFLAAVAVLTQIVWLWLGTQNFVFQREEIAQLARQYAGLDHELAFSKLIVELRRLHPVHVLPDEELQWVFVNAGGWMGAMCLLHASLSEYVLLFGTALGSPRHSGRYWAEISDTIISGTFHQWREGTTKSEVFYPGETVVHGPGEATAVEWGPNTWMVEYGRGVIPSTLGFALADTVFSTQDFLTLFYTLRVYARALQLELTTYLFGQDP

SMILES	Ki
CO[C@H]1Cc2sccc2C2(CCN(CCc3ccccc3)CC2)O1	5.9 nM
CO[C@H]1Cc2sc(-c3ccccc3)cc2C2(CCN(Cc3ccco3)CC2)O1	2.2 nM
CC(=O)C[C@H]1Cc2sccc2C2(CCN(Cc3ccccc3)CC2)O1	12 nM
CCCN1CCC2(CC1)O[C@@H](OC)Cc1c2cnn1-c1ccccc1	33 nM
CCCN1CCC2(CC1)O[C@@H](OC)Cc1c2cnn1C	2980 nM
CO[C@H]1Cc2sccc2C2(CCN(CC3CCCCC3)CC2)O1	0.3 nM
c1ccc(CCCN2CCC3(CC2)OCCc2c3cnn2-c2ccccc2)cc1	0.81 nM
Cn1ncc2c1CCOC21CCN(CCCc2ccccc2)CC1	17 nM
CCOC(=O)C[C@H]1OC2(CCN(Cc3ccccc3)CC2)c2ccccc21	15 nM
CO[C@H]1Cc2c(cnn2-c2ccccc2)C2(CCN(Cc3ccccc3)CC2)O1	1.5 nM
CCOC(=O)C[C@H]1Cc2ccccc2C2(CCN(Cc3ccccc3)CC2)O1	183 nM
CCCCN1CCC[C@@]2(C1)O[C@H](OC)Cc1ccccc12 (racemic)	1290 nM
CCC[C@H]1OC2(CCN(Cc3ccccc3)CC2)c2ccccc21	3.2 nM
OCC[C@H]1Cc2ccccc2C2(CCN(CCCc3ccccc3)CC2)O1	15 nM
CC(=O)C[C@@H]1Cc2sccc2C2(CCN(Cc3ccccc3)CC2)O1	9.4 nM
CO[C@H]1Cc2sccc2C2(CCN(CC=C(C)C)CC2)O1	1 nM
COC(=O)c1cc2c(s1)C[C@H](OC)OC21CCN(Cc2ccccc2)CC1	10.9 nM
CO[C@H]1Cc2c(cnn2C)C2(CCN(Cc3ccccc3)CC2)O1	21 nM
CO[C@H]1Cc2sc(C(=O)c3ccccc3)cc2C2(CCN(Cc3ccccc3)CC2)O1	3.7 nM

SMILES	Ki
OCC[C@@H]1Cc2ccccc2C2(CCN(CC3CCCCC3)CC2)O1	9 nM
CO[C@@H]1Cc2ccccc2[C@@]2(CCCN(Cc3ccccc3)C2)O1 (racemic)	1720 nM
CO[C@H]1Cc2ccccc2C2(CCN(CCCCc3ccccc3)CC2)O1	10 nM
CO[C@H]1Cc2c(cnn2-c2ccccc2)C2(CCN(C(C)C)CC2)O1	210 nM
CO[C@@H]1Cc2ccccc2[C@@]2(CCCN(CCc3ccccc3)C2)O1 (racemic)	470 nM
OCC[C@@H]1Cc2ccccc2C2(CCN(Cc3ccccc3)CC2)O1	48 nM
CO[C@H]1Cc2ccccc2C2(CCN(C)CC2)O1	4400 nM
CO[C@H]1CCc2ccccc2C2(CCN(Cc3ccccc3)CC2)O1	2.6 nM
OCC[C@H]1Cc2ccccc2C2(CCN(CC3CCCCC3)CC2)O1	10 nM
CO[C@H]1Cc2sccc2C2(CCN(Cc3ccccc3)CC2)O1	0.32 nM
OCC[C@H]1Cc2ccccc2C2(CCN(Cc3ccccc3)CC2)O1	10 nM
O[C@H]1Cc2ccccc2C2(CCN(CCc3ccccc3)CC2)O1	44 nM
CC(C)=CCN1CCC2(CC1)OCCc1c2cnn1C	14 nM
CO[C@H]1Cc2sc(CN(C)C)cc2C2(CCN(Cc3ccccc3)CC2)O1	17 nM
CO[C@H]1Cc2c(cnn2-c2ccccc2)C2(CCN(CC(C)C)CC2)O1	6.3 nM
CO[C@@H]1OC2(CCN(Cc3ccccc3)CC2)c2cnn(-c3ccccc3)c21	0.49 nM
CO[C@H]1Cc2sccc2C2(CCN(CCCCc3ccccc3)CC2)O1	7.7 nM
O[C@H]1OC2(CCN(CCc3ccccc3)CC2)c2ccccc21	109 nM
OCC[C@@H]1Cc2ccccc2C2(CCN(CCCc3ccccc3)CC2)O1	68 nM
